Reference: patent US20120088730A1, “USE OF ANGIOTENSIN CONVERTING ENZYME (ACE) DOMAIN SPECIFIC INHIBITORS TO INHIBIT OR ENHANCE CYTOKINE PRODUCTION AND ALTER IMMUNE RESPONSE” (CEDARS-SINAI MEDICAL CENTER, priority 2009, published 2012)
Ends that are not written are not given here.

How the values were obtained:
[1] = tested on: angiotensin II-induced hypertension; details: secondary to angiotensin II-induced hypertension; cited from earlier work
[2] = tested on: macrophages; details: cited from earlier work
[3] = tested on: 2-kidney, 1-clip hypertensive rats; details: osmotic mini-pump; cited from earlier work
[4] = tested on: cardiac fibroblasts; details: cited from earlier work
[5] = tested on: aldosterone-salt hypertension; details: cited from earlier work
[6] = tested on: Smad2; details: cited from earlier work
[7] = tested on: cytokine expression; test: cytokine expression with ACE inhibitor, ACE7 (N-terminus KO) vs wild type (FIG. 11); assay type: cell-based, mouse; details: ACE7 (N-terminus KO) and wild type
Procedure: (§1) To obtain large numbers of macrophages, N-KO, C-KO and WT mice were injected intraperitoneally with thioglycolate. After four days, cells were collected, washed and counted. Aliquots of 1×10^6 cells were adhered in 24 well plates. After 2 hrs, non-adherent cells were removed and the plates were visually evaluated to verify that wells contained nearly identical numbers of adherent cells. Media containing 1 ug/ml of LPS (a model activator of macrophages) was then added. After 24 hrs, supernatants were collected and the concentrations of TNF-α and IL-12p40 (one of the 2 proteins comprising IL-12) were determined by ELISA (eBioscience). However, there was a marked difference in cytokine expression profile; macrophages derived from N-KO mice producing far more TNF- a and IL-12p40 than either C-KO or WT mice (p values for TNF-α: N-KO vs. C-KO or WT, p<0.001; p values for IL12p40: N-KO vs. C-KO or WT, p<0.02). Further, there was a clear trend of macrophages from C-KO mice producing less cytokines than wild-type cells (TNF- a: C-KO vs. WT, p<0.07; IL12p40: C-KO vs. WT, p<0.02). Thus, in the absence of ACE N-terminal catalytic activity, TNF-α and IL-12 cytokine expression was increased. In the absence of C-terminal catalytic activity, there is a strong reduction of production of these cytokines. […]

[8] = tested on: TNF; test: TNF with AT1R inhibitor, ACE7 (N-terminus KO) vs wild type (FIG. 12); assay type: cell-based, mouse; details: ACE7 (N-terminus KO) and wild type
Procedure: FIG. 12 depicts, in accordance with an embodiment of the present invention, AT1R inhibitor losartan can lower TNF, but cannot eliminate the difference between ACE7 (N-terminus KO) and wild type.
as §1, with “increased.” for “increased. In the absence of C-terminal catalytic activity, there is a strong reduction of production of these cytokines.”

[9] = target: Hip-His-Leu (HHL) (synthetic ACE substrate); test: cell-based or functional assay
[10] = target: T1, ACE C-domain (Homo sapiens, UniProt P12821); details: lower for C-domain; cited from earlier work
T1 construct: with a dissociation constant more than 3 orders of magnitude lower for the ACE C-domain than the N-domain
T1 sequence (P12821 643-1222 limits assumed): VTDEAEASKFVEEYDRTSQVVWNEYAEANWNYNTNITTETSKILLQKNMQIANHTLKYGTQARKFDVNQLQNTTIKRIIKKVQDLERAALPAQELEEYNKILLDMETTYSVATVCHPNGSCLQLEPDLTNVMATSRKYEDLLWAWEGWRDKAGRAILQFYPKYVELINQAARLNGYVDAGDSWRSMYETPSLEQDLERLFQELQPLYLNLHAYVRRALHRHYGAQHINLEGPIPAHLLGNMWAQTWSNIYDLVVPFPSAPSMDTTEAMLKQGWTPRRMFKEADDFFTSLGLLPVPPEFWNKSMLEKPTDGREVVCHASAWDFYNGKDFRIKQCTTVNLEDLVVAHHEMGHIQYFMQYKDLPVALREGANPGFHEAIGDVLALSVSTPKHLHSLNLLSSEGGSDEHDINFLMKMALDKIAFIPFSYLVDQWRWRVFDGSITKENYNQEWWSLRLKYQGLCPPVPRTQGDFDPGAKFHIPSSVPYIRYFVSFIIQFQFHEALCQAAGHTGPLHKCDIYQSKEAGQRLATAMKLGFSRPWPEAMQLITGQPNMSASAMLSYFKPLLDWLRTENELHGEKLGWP

[11] = cited from earlier work
[12] = target: AcSDAcKP (synthetic ACE substrate); test: cell-based or functional assay

Acetyl-SerAspLysPro (Ac-SDKP) [AcSDKP, tetrapeptide cleaved from thymosin-β4 by prolyl oligopeptidase]
aortic fibrosis [1]: reduced aortic fibrosis | macrophage production of TNF [2]: reducing macrophage production of TNF | blood pressure [3]: no effect on blood pressure | development of fibrosis in the heart [3]: prevented the development of fibrosis in the heart | growth of cardiac fibroblasts [4]: inhibits the growth of cardiac fibroblasts | collagen deposition and cell proliferation in the heart and kidney [5]: prevented increased collagen deposition and cell proliferation | TGF-β1 stimulated phosphorylation of Smad2 [6]: inhibits

NCCCC[C@H](N[C@@H](CCc1ccccc1)C(=O)O)C(=O)N1CCC[C@H]1C(=O)O [lisinopril]
cytokine expression [7]: can lower cytokine expression

CCCCc1nc(Cl)c(CO)n1Cc1ccc(-c2ccccc2-c2nn[nH]n2)cc1 [losartan]
TNF [8]: can lower TNF

ACE of ACE 13/13 (C-KO) mice: mouse angiotensin converting enzyme with the C-terminal catalytic site inactivated (histidines of HEMGH mutated to lysines) (from UniProt P09470 35-1237)
catalytic activity of plasma (hydrolysis efficiency against wild-type mice) (% of wild-type efficiency) [9]: 18

O=C(NC(Cc1ccccc1)P(=O)(O)C1CCCC1C(=O)NC(Cc1c[nH]c2ccccc12)C(=O)O)OCc1ccccc1 (centres unmarked) [RXPA 380]
dissociation constant for the ACE C-domain relative to the N-domain [10]: more than 3 orders of magnitude | effectiveness in mice ([11]; mice): effective | stability in vivo ([11]; mouse, in vivo): stable

ACE of ACE 7/7 (N-KO) mice: mouse angiotensin converting enzyme with the N-terminal catalytic site inactivated (HEMGH motif converted to KEMGK) (from UniProt P09470 35-1237)
catalytic activity of plasma (cleavage efficiency against wild-type mice) (% of wild-type efficiency) [12]: 3
